From PubChem BioAssay AID2060496 (Molecular Pharmacology Branch, DTP, NCI, 2025)
Several values for one entry are separate records, joined by “and”; a condition that tells them apart may be missing. Identical values can stand only once.

Test system: 276233-004-R-J1-PDC complex spheroid viability
Assay: Anticancer human tumor 276233-004-R-J1-PDC patient-derived colon adenocarcinoma cell line growth inhibition [GQUAD]
Conditions: for viability, T/C: stronger effect = lower value
Text: DNA G-quadruplex Stabilizer Agents in Combinations in Complex Spheroids
A high-throughput screen of multi-cell type tumor spheroids was designed to identify active combinations of DNA G-quadruplex stabilizer agents and targeted small molecules. Complex spheroids include a stromal component modeled by human endothelial cells (HUVEC) and fibroblasts modeled by human mesenchymal stem cells (MSCs). The concentration ranges selected for each drug and investigational agent were based upon clinically achievable concentrations if the clinical Cmax of the agent was known.
Compounds. The drugs and investigational agents: pidnarulex (CX-5461; NSC782164), APTO-253 (NSC789042), BRACO-19 (NSC847499), peposertib (NSC802822), ceralasertib (NSC780249), elimusertib (NSC800525), camonsertib (NSC841442), AZD-1390 (NSC803789), olaparib (NSC753686), talazoparib (NSC767125), ART-558 (NSC835418), sotorasib (NSC818433), MRTX-1133 (NSC836407), SN-38 (NSC673596), topotecan (NSC609699), etoposide (NSC141540), doxorubicin (NSC123127), gemcitabine (NSC613327), 5-fluorouracil (NSC19893), paclitaxel (NSC125973), vemurafenib (NSC761431), panobinostat (NSC761190), R-306465 (JNJ-16241199; NSC773264), adavosertib (NSC754352), TP-3654 (NSC805149), carboplatin (NSC241240), KSQ-4279 (NSC840948), and staurosporine (NSC755774) were obtained from the National Cancer Institute (NCI) Developmental Therapeutics Program Chemical Repository (34). The FDA-approved anticancer drug set is available from the NCI Developmental Therapeutics Program. […] The stock solutions were prepared in dimethyl sulfoxide (DMSO, Sigma-Aldrich, St. Louis, MO, cat. D2650) at 800-fold the tested concentration and stored at -70 degrees C prior to their use. All drugs and investigational agents were tested over a range starting from a high concentration at or near the clinical Cmax and decreasing in half-log increments. If the clinical Cmax for an agent had not been determined, the highest concentration tested was 10 microM.
2.3 Cell Culture. All cells were maintained in an incubator at 37 degrees C and 5% CO2 with 95% humidity. The PDC lines were cultured according to standard operating procedures established by the NCI PDMR. All PDCs were thawed and cultured in Matrigel-coated flasks prepared with a working solution of 1X Ham's F-12 nutrient mix, without supplementation (Invitrogen, cat. 11765054), 100 U/mL penicillin-streptomycin (Invitrogen, cat. 15140122), and 2.5% Matrigel (Corning Inc., cat. 354248) for the first three passages. The 857933-349-R-J2-PDC line was cultured in 6C/Colon 1B media, which includes advanced DMEM/F-12 (Thermo Fisher Scientific, cat. 12634028), 10 mM HEPES (Thermo Fisher Scientific, cat. 15630080), 1X GlutaMAX supplement (Thermo Fisher Scientific, cat. 35050061), 0.1 mg/mL primocin (InvivoGen, cat. ant-pm-2), 10% defined fetal bovine serum, heat inactivated (HyClone Laboratories Inc., cat. SH30070.03HI), 50% L-WRN conditioned media (ATCC, cat. CRL-3276), 1.25 mM N-Acetyl-L-cysteine (Sigma-Aldrich, cat. A9165), 10 mM nicotinamide (Sigma-Aldrich, cat. N0636), 1X B-27 supplement (Thermo Fisher Scientific, cat. 17504044), 1X N-2 supplement (Thermo Fisher Scientific, cat. 17502048), 10 microM Y-27632 dihydrochloride (Tocris Bioscience, cat. 1254), and 50 ng/mL human EGF recombinant protein (Thermo Fisher Scientific, cat. PHG0311). The 485176-168-R4-J1-PDC line was cultured in Panc media, which includes all 6C/Colon 1B media components plus 100 ng/mL human FGF-10 (Thermo Fisher Scientific, cat. 100-26), 500 nM SB-431542 (Selleckchem, cat. S1067), and gastrin (Tocris, cat. 3006).
[…]
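Also: spheroids exposed to drugs for seven days.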
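For viability, T/C in this document: 100% = DMSO vehicle control viability.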

For `CC(C)n1c(=O)n(C)c2cnc3cc(F)c(-c4ccc(OCCCN5CCCCC5)nc4)cc3c21` + Cc1cnc(CNC(=O)c2c(=O)c3ccc(N4CCCN(C)CC4)nc3n3c2sc2ccccc23)cn1, the IC50 (curve of first compound, second compound 0.0316 µM) was > 10 µM, the IC50 (curve of first compound, second compound 0.1 µM) was > 10 µM and the IC50 (curve of first compound, second compound 0.316 µM) was > 10 µM. The IC50 (curve of first compound, second compound 1 µM) was > 10 µM, the IC50 (curve of first compound, second compound 3.16 µM) was > 10 µM and the IC50 (curve of first compound, second compound 10 µM) was > 10 µM. The viability, T/C (second compound 0.0316 µM, first compound 0.0316 µM) was 81.3%, the viability, T/C (second compound 0.0316 µM, first compound 0.1 µM) was 71.9% and the viability, T/C (second compound 0.0316 µM, first compound 0.316 µM) was 82.5%. For the same molecule, the viability, T/C (second compound 0.0316 µM, first compound 1 µM) was 89.4%, the viability, T/C (second compound 0.0316 µM, first compound 3.16 µM) was 79.3% and the viability, T/C (second compound 0.0316 µM, first compound 10 µM) was 79.2%. For the same molecule, the viability, T/C (second compound 0.1 µM, first compound 0.0316 µM) was 79%, the viability, T/C (second compound 0.1 µM, first compound 0.1 µM) was 83.4% and the viability, T/C (second compound 0.1 µM, first compound 0.316 µM) was 76.8%. The viability, T/C (second compound 0.1 µM, first compound 1 µM) was 78.9%, the viability, T/C (second compound 0.1 µM, first compound 3.16 µM) was 96.5% and the viability, T/C (second compound 0.1 µM, first compound 10 µM) was 86.4%. The viability, T/C (second compound 0.316 µM, first compound 0.0316 µM) was 85.9%, the viability, T/C (second compound 0.316 µM, first compound 0.1 µM) was 96.7% and the viability, T/C (second compound 0.316 µM, first compound 0.316 µM) was 82.1%. The viability, T/C (second compound 0.316 µM, first compound 1 µM) was 78.2%, the viability, T/C (second compound 0.316 µM, first compound 3.16 µM) was 85.2% and the viability, T/C (second compound 0.316 µM, first compound 10 µM) was 81.9%. It also gave a viability, T/C (second compound 1 µM, first compound 0.0316 µM) of 69.9%, a viability, T/C (second compound 1 µM, first compound 0.1 µM) of 64.9% and a viability, T/C (second compound 1 µM, first compound 0.316 µM) of 89.3%. For the same molecule, the viability, T/C (second compound 1 µM, first compound 1 µM) was 81.6%, the viability, T/C (second compound 1 µM, first compound 3.16 µM) was 85% and the viability, T/C (second compound 1 µM, first compound 10 µM) was 69.7%. The viability, T/C (second compound 3.16 µM, first compound 0.0316 µM) was 80.4%, the viability, T/C (second compound 3.16 µM, first compound 0.1 µM) was 78% and the viability, T/C (second compound 3.16 µM, first compound 0.316 µM) was 79.3%. For the same molecule, the viability, T/C (second compound 3.16 µM, first compound 1 µM) was 71.9%, the viability, T/C (second compound 3.16 µM, first compound 3.16 µM) was 75% and the viability, T/C (second compound 3.16 µM, first compound 10 µM) was 76.7%. The viability, T/C (second compound 10 µM, first compound 0.0316 µM) was 74.3%, the viability, T/C (second compound 10 µM, first compound 0.1 µM) was 66.7% and the viability, T/C (second compound 10 µM, first compound 0.316 µM) was 66.8%. It also gave a viability, T/C (second compound 10 µM, first compound 1 µM) of 69.2%, a viability, T/C (second compound 10 µM, first compound 3.16 µM) of 80.8% and a viability, T/C (second compound 10 µM, first compound 10 µM) of 66.3%.
`COc1ncnc(C2CC2)c1-c1ncc2cnn(Cc3ccc(-c4nc(C(F)(F)F)cn4C(C)C)cc3)c2n1` was tested, and the viability, T/C (compound 0.0316 µM) was 86% and 85.2% and 92%, the viability, T/C (compound 0.1 µM) was 69% and 77.1% and 72.8% and the viability, T/C (compound 0.316 µM) was 84.5% and 105% and 85.5%. For the same molecule, the viability, T/C (compound 1 µM) was 82% and 82.4% and 85.8%, the viability, T/C (compound 3.16 µM) was 94.6% and 92.9% and 82.1% and the viability, T/C (compound 10 µM) was 98% and 75.9% and 97.7%. The IC50 (curve of compound) was > 10 µM.
